Earlier results in patent publication US6649649B1, “Method of treating colonic adenomas” (Merck & Co., Inc., priority 1995, dated 2003).

How the values were obtained:
[1] = test system: incident colon cancer; conditions: persons who regularly used aspirin compared to those who used no aspirin
[2] = test system: PGHS-1 or PGHS-2
[3] = test system: sporadic colonic polyps; conditions: early sporadic polyps (67% of the polyps were <5 mm)
[4] = test system: polyps in patients with familial polyposis
[5] = test system: rat

CC(=O)Oc1ccccc1C(=O)O [aspirin]
lower risk of incident colon cancer [1]: 40% | selectivity for inhibition of either PGHS-1 or PGHS-2 [2]: little selectivity

CC1=C(CC(=O)O)c2cc(F)ccc2/C1=C\c1ccc([S+](C)[O-])cc1 (centres unmarked) [sulindac]
inhibition of PGHS-1 and PGHS-2 [2]: inhibiting both PGHS-1 and PGHS-2 | regression of sporadic colonic polyps [3]: did not result in a regression | polyp regression [4]: results in polyp regression

CS(=O)(=O)Nc1ccc([N+](=O)[O-])cc1OC1CCCCC1 [NS-398]
analgesic effect [5]: analgesic effects | antiinflammatory effect [5]: antiinflammatory | antipyretic effect [5]: antipyretic | ulcerogenicity [5]: without being ulcerogenic | selectivity for inhibition of either PGHS-1 or PGHS-2 [2]: selective PGHS-2 inhibitor

COc1ccc2c(c1)c(CC(=O)O)c(C)n2C(=O)c1ccc(Cl)cc1 [indomethacin]
selectivity for inhibition of either PGHS-1 or PGHS-2 [2]: little selectivity
